Experimental data taken from patent US20090275610A1, “TRICYCLIC OPIOID MODULATORS” (priority 2005, published 2009).
Like-named read-outs stand apart in the source and are kept apart here.

Key:
delta opioid receptor = biological target: T1, delta opioid receptor (Rattus norvegicus, UniProt P33533); test: Rat brain delta opioid receptor binding assay; settings: rat forebrain membranes, [3H]DPDPE or [3H]naltrindole, 25° C., 2.5 h
T1 construct: the forebrains were homogenized in Tris buffer in a Teflon®-glass homogenizer; from tissue; host or cells: forebrain of male Wistar rats (particulate membrane preparation)
T1 sequence (P33533 whole entry): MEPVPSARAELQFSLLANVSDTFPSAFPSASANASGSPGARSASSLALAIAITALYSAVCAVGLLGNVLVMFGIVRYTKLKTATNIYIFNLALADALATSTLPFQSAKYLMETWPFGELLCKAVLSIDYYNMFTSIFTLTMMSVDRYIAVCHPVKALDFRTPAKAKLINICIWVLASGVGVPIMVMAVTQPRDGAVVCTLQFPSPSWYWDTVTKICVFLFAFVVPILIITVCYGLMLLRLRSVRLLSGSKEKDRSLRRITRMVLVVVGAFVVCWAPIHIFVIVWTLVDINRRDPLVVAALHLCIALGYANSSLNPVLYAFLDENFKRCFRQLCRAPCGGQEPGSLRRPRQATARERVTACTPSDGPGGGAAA
Experimental: Rat Brain Delta Opioid Receptor Binding Assay
(§1) Procedure: Male, Wistar rats (150-250 g, VAF, Charles River, Kingston, N.Y.) were killed by CO2, and their brains removed and placed immediately in ice cold Tris HCl buffer (50 mM, pH 7.4). The forebrains were separated from the remainder of the brain by a coronal transection, beginning dorsally at the colliculi and passing ventrally through the midbrain-pontine junction. After dissection, the forebrains were homogenized in Tris buffer in a Teflon®-glass homogenizer. The homogenate was diluted to a concentration of 1 g of forebrain tissue per 80 mL Tris and centrifuged at 39,000×g for 10 min. The pellet was resuspended in the same volume of Tris buffer containing 5 mM MgCl2 with several brief pulses from a Polytron homogenizer. This particulate preparation was used for the delta opioid binding assays.
(§2) Analysis: The data from the scintillation counter were used to calculate either the % inhibition compared to control binding (when only a single concentration of test compound was evaluated) or a Ki value (when a range of concentrations was tested). Percent inhibition was calculated as: [(total dpm−test compound dpm)/(total dpm−nonspecific dpm)]*100. Kd and Ki values were calculated using GraphPad PRISM data analysis program.

mu opioid receptor = biological target: T2, mu opioid receptor (Rattus norvegicus, UniProt P33535); test: Rat brain mu opioid receptor binding assay; settings: rat forebrain membranes, [3H]DAMGO, 25° C., 2.5 h
T2 construct: the forebrains were homogenized in Tris buffer in a Teflon®-glass homogenizer; from tissue; host or cells: forebrain of male Wistar rats (particulate membrane preparation)
T2 sequence (P33535 whole entry): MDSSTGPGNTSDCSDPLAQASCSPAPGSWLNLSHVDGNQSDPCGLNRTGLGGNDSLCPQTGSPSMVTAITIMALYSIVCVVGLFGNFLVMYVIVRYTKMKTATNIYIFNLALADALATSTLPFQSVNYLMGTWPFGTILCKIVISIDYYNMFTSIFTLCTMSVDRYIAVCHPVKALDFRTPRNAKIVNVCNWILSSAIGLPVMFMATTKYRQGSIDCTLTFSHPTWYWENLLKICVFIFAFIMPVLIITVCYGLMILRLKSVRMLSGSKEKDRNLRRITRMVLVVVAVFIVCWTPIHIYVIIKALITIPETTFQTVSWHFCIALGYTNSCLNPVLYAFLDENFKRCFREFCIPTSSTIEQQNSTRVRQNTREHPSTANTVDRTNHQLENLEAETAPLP
Experimental: Rat Brain Mu Opioid Receptor Binding Assay
as §1
as §2, with “concentrations” for “concentrations was”

[1] = biological target: T3, hMOR (CHO-hMOR cell membranes) (Homo sapiens, UniProt P35372); test: [35S]GTPγS binding assay in CHO-hMOR cell membranes; type: biochemical
T3 construct: host or cells: CHO cells expressing hMOR (purchased membranes)
T3 sequence (P35372 whole entry): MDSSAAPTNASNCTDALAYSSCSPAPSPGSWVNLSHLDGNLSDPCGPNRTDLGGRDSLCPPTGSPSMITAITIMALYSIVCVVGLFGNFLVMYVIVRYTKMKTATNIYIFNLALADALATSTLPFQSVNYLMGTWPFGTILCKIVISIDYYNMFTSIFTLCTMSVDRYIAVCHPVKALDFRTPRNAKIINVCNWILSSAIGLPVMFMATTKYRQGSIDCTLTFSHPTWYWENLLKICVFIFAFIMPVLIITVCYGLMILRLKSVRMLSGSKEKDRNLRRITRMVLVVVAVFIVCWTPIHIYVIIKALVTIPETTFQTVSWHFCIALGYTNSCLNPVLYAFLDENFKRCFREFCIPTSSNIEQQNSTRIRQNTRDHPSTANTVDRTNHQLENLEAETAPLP
Experimental: Functional Assay: [^35S]GTPγS Binding Assays in CHO-hMOR Cell Membranes
Methods: CHO-hMOR cell membranes were purchased from Receptor Biology, Inc. (Baltimore, Md.). About 10 mg/mL of membrane protein was suspended in 10 mM TRIS-HCl pH 7.2, 2 mM EDTA, 10% sucrose, and the suspension kept on ice. A 1 mL volume of membranes was added to 15 mL cold binding assay buffer containing 50 mM HEPES, pH 7.6, 5 mM MgCl2, 100 mM NaCl, 1 mM DTT and 1 mM EDTA. The membrane suspension was homogenized with a Polytron and centrifuged at 3,000 rpm for 10 min. The supernatant was then centrifuged at 18,000 rpm for 20 min. The pellet was resuspended in 10 mL assay buffer with a Polytron. The membranes were preincubated with wheat germ agglutinin coated SPA beads (Amersham) at 25° C. for 45 min in the assay buffer. The SPA bead (5 mg/mL) coupled membranes (10 μg/mL) were then incubated with 0.5 nM [^35S]GTPγS in the assay buffer. […] A range of concentrations of receptor agonist was used to stimulate [^35S]GTPγS binding. Both basal and non-specific binding was tested in the absence of agonist; non-specific binding determination included 10 μM unlabeled GTPγS.
Compounds were tested for function as antagonists by evaluating their potential to inhibit agonist-stimulated GTPγS binding. Radioactivity was quantified on a Packard TopCount. The following parameters were calculated:
(§3) EC50 values were calculated using GraphPad Prism.

[2] = biological target: T4, delta opioid receptor (NG108-15 cell membranes) (Mus musculus, UniProt P32300); test: [35S]GTPγS binding assay in NG108-15 cell membranes (delta opioid); type: biochemical
T4 construct: NG108-15 cell membranes were purchased from Applied Cell Sciences (Rockville, Md.); host or cells: NG108-15 cell membranes (purchased)
T4 sequence (P32300 whole entry): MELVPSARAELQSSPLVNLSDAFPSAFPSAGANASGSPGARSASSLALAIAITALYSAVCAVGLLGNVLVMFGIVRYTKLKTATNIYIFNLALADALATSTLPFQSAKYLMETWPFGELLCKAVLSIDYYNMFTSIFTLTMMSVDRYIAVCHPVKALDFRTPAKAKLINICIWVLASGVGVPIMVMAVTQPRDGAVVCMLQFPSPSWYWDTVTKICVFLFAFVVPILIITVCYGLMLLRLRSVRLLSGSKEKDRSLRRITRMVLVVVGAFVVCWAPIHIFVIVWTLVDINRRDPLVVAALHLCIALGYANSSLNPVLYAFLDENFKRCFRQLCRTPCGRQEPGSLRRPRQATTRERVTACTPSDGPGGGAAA
Experimental: Functional Assay: [^35S]GTPγS Binding Assay in NG108-15 Cell Membranes (Delta Opioid)
Methods: NG108-15 cell membranes were purchased from Applied Cell Sciences (Rockville, Md.). A sample (8 mg/mL) of membrane protein suspended in 10 mM TRIS-HCl pH 7.2, 2 mM EDTA, 10% sucrose. Membranes were maintained at 4-8° C. A 1 mL volume of membranes was added into 10 mL cold binding assay buffer. The assay buffer contained 50 mM Tris, pH 7.6, 5 mM MgCl2, 100 mM NaCl, 1 mM DTT and 1 mM EGTA. The membrane suspension was homogenized twice with a Polytron, and centrifuged at 3000 rpm for 10 min. The supernatant was then centrifuged at 18,000 rpm for 20 min. Ten mL assay buffer was added into the pellet containing tube. The pellet and buffer were mixed with a Polytron.
Incubation procedure: The pellet membranes (75 μg/mL) were preincubated with SPA (10 mg/mL) at 25° C. for 45 min in the assay buffer. The SPA (5 mg/mL) coupled with membranes (37.5 μg/mL) was then incubated with 0.1 nM [^35S]GTPγS in the same Tris buffer containing 100 μM GDP in total volume of 200 μL. Increasing concentrations of receptor agonists were used to stimulate [^35S]-GTPγS binding. The basal binding was tested in the absence of agonists and non-specific binding was tested in the presence of 10 μM unlabeled GTPγS. The data were analyzed on a Packard Top Count.
% of Basal=(stimulated−non specific)*100/(basal−non specific).
as §3

[3] = rDOR (Ki, nM): Rat delta opioid receptor binding constant
[4] = rMOR (Ki, nM): Rat mu opioid receptor binding constant
[5] = read-out: rDOR (Ki, nM): Rat delta opioid receptor binding constant
[6] = read-out: rMOR (Ki, nM): Rat mu opioid receptor binding constant
[7] = CHO-hMOR cell membranes, read-out: mu GTPγS binding EC50
[8] = read-out: delta GTPγS binding EC50

For `Oc1cccc2c1Oc1ccccc1C2=C1CC2CCC(C1)N2Cc1ccccn1` [Cpd 21, 9-(8-pyridin-2-ylmethyl-8-azabicyclo[3.2.1]oct-3-ylidene)-9H-xanthen-4-ol], the Ki (delta opioid receptor; [3]) was 0.007 nM, the Ki (mu opioid receptor; [4]) was 0.1 nM and the EC50 [1] was > 10000 nM. The EC50 ([2]; delta GTPγS binding EC50 (nM)) was 21.8 nM.

`Oc1cccc2c1Oc1ccccc1C2=C1CC2CCC(C1)N2Cc1ccncc1` [Cpd 22] was tested, and the Ki (delta opioid receptor; [5]) was 0.97 nM, the Ki (mu opioid receptor; [6]) was 358 nM and the EC50 [1, 7] was > 10000 nM. For the same compound, the EC50 [2, 8] was 2720 nM.

`Oc1cc(CN2C3CCC2CC(=C2c4ccccc4Oc4c(O)cccc42)C3)ccn1` [Cpd 23] was tested, and the Ki (delta opioid receptor; [5]) was 1.5 nM, the Ki (mu opioid receptor; [6]) was 2.18 nM and the EC50 [1, 7] was 12400 nM. It also gave an EC50 [2, 8] of 52.8 nM.

In the case of `Oc1cccc2c1Oc1ccccc1C2=C1CC2CCC(C1)N2Cc1cccs1` [Cpd 24], the Ki (delta opioid receptor; [5]) is reported as 0.046 nM, the Ki (mu opioid receptor; [6]) is reported as 1.58 nM and the EC50 [1, 7] is reported as > 10000 nM. It also gave an EC50 [2, 8] of 6.05 nM.

`Oc1cccc2c1Oc1ccccc1C2=C1CC2CCC(C1)N2Cc1ccoc1` [Cpd 25, 9-(8-Furan-3-ylmethyl-8-aza-bicyclo[3.2.1]oct-3-ylidene)-9H-xanthen-4-ol] showed a Ki (delta opioid receptor; [3]) of 0.26 nM, a Ki (mu opioid receptor; [4]) of 0.56 nM and an EC50 [1] of 2810 nM. The EC50 ([2]; delta GTPγS binding EC50 (nM)) was 1.08 nM.

In the case of `Oc1cccc2c1Oc1ccccc1C2=C1CC2CCC(C1)N2CC1CC1` [Cpd 26], the Ki (delta opioid receptor; [5]) is reported as 5.43 nM, the Ki (mu opioid receptor; [6]) is reported as 65.9 nM and the EC50 [1, 7] is reported as > 10000 nM. For the same compound, the EC50 [2, 8] was 194 nM.

With `CC=C(C)CN1C2CCC1CC(=C1c3ccccc3Oc3c(O)cccc31)C2` [Cpd 27] the Ki (delta opioid receptor; [5]) was 0.35 nM, the Ki (mu opioid receptor; [6]) was 2.03 nM and the EC50 [1, 7] was > 10000 nM. It also gave an EC50 [2, 8] of 9.8 nM.

`Oc1cccc2c1Oc1ccccc1C2=C1CC2CCC(C1)N2Cc1c[nH]c(-c2ccccc2)n1` [Cpd 28] was tested, and the Ki (delta opioid receptor; [5]) was 192 nM, the Ki (mu opioid receptor; [6]) was 58.5 nM and the EC50 [1, 7] was > 10000 nM. The EC50 [2, 8] was 1380 nM.

With `Oc1cccc2c1Oc1ccccc1C2=C1CC2CCC(C1)N2CCc1ccccc1` [Cpd 30] the Ki (delta opioid receptor; [5]) was 63.5 nM, the Ki (mu opioid receptor; [6]) was 27.7 nM and the EC50 [1, 7] was > 10000 nM. For the same compound, the EC50 [2, 8] was 2960 nM.

`Oc1cccc2c1Oc1ccccc1C2=C1CC2CCC(C1)N2Cc1cccnc1` [Cpd 31, 9-(8-pyridin-3-ylmethyl-8-azabicyclo[3.2.1]oct-3-ylidene)-9H-xanthen-4-ol] gave a Ki (delta opioid receptor; [3]) of 0.028 nM, a Ki (mu opioid receptor; [4]) of 1.23 nM and an EC50 [1, 7] of 8090 nM. It also gave an EC50 [2, 8] of 134 nM.

In the case of `Oc1cccc2c1Oc1ccccc1C2=C1CC2CCC(C1)N2Cc1ccccc1` [Cpd 32, 9-(8-benzyl-8-azabicyclo[3.2.1]oct-3-ylidene)-9H-xanthen-4-ol], the Ki (delta opioid receptor; [3]) is reported as 0.023 nM, the Ki (mu opioid receptor; [4]) is reported as 0.29 nM and the EC50 [1] is reported as > 10000 nM. For the same compound, the EC50 ([2]; delta GTPγS binding EC50 (nM)) was 28.6 nM.

`Oc1cccc2c1Oc1ccccc1C2=C1CC2CCC(C1)N2Cc1ncc[nH]1` [Cpd 34] was tested, and the Ki (delta opioid receptor; [5]) was 0.028 nM, the Ki (mu opioid receptor; [6]) was 0.53 nM and the EC50 [1, 7] was 1610 nM. For the same compound, the EC50 [2, 8] was 3.33 nM.
